Legend:
Format in all cases: cell-based
MIP1α mRNA = assay: RT-PCR of MIP1α mRNA in monocytes; conditions: human monocytes; for amplification of band ascribed to MIP1α mRNA, stimulant alone: LPS or TPA alone, 4 hours, RT-PCR
Procedure: (§1) Four-hundred milliliters of blood was collected from a human normal individual donor. The collected blood was diluted 2-folds with PBS(−), overlaid on Ficoll-paque (manufactured by Pharmacia), and centrifuged at 500×g for 20 minutes. The peripheral blood mononuclear cells (PBMCs) in the intermediate layer was collected with a pipette, and washed with RPMI 1640 medium (manufactured by Bio Whittaker). The collected PBMCs was suspended in a storage solution of 90% FCS (manufactured by JRH Biosciences)/10% dimethyl sulfoxide, and stored in liquid nitrogen. During the experiment, these stored PBMCs were rapidly melted in water bath at 37° C., and washed with RPMI 1640 medium containing 10 μg/ml Dnase (manufactured by Calbiochem). Thereafter, the number of living cells was calculated by trypan blue staining method, and subjected to each experiment.
(§2) PBMCs were suspended in RPMI 1640 medium containing 5% human serum of blood type-AB, 0.1 mM nonessential amino acid, 1 mM sodium pyruvate, 2 mM L-glutamine (hereinabove manufactured by Bio Whittaker), 10 mM HEPES (manufactured by nakalai tesque), and 1% streptomycin-penicillin (manufactured by Gibco BRL) (hereinafter simply referred to as “5HRPMI medium”) so as to have a concentration of 4×10^6 cells/ml. Thereafter, the suspension was spread on a 6-well cell culture plate (manufactured by Falcon) in a volume of 3 ml/well, and the cells were incubated in a wet-type incubator at 37° C. and 5% CO2 for 1.5 hours. After 1.5 hours, the non-adherent cells were removed by suction, and each well was washed with RPMI 1640 medium, and 2 ml of the 5HRPMI medium was added to the wells, to give monocytes.
To the monocytes obtained above was added in each well 8 μl of an aqueous DGE solution, or 8 μl of water as a control, and the cells were incubated in a wet-type incubator at 37° C. and 5% CO2 for 5 hours. Thereafter, with addition of 2 μl of a 1 μg/ml aqueous LPS solution or 2 μl of a 25 μM TPA dimethyl sulfoxide solution to each well, or with addition of neither of these substances thereto, the cells were cultured for additional 4 hours. Thereafter, RNA was prepared from each cell in accordance with the description of the kit using RNeasy Mini Kit (manufactured by QIAGEN, 74104). The group with addition of water alone or the aqueous DGE solution alone to the cells was set as a negative control, and the group with addition of water and the aqueous LPS solution or the aqueous TPA solution to the cells was set as a positive control. […]

interleukin-6 (IL-6) = assay: RT-PCR expression level of IL-6 gene in monocytes; conditions: human monocytes, 30 PCR cycles
Procedure: as §1, §2
(§3) To the monocytes obtained above was added in each well 8 μl of an aqueous DGE solution, or 8 μl of water as a control, and the cells were incubated in a wet-type incubator at 37° C. and 5% CO2 for 5 hours. Thereafter, with addition of 2 μl of a 1 μg/ml aqueous LPS solution or 2 μl of a 25 μM TPA dimethyl sulfoxide solution to each well, or with addition of neither of these substances thereto, the cells were cultured for additional 4 hours. Thereafter, RNA was prepared from each cell in accordance with the description of the kit using RNeasy Mini Kit (manufactured by QIAGEN, 74104). The group with addition of water alone or the aqueous DGE solution alone to the cells was set as a negative control, and the group with addition of water and the aqueous LPS solution or the aqueous TPA solution to the cells was set as a positive control.
(§4) A liquid mixture having a total volume of 60 μl of 0.5 μg of RNA prepared above, 10 mM Tris-HCl (pH 8.3), 50 mM KCl, 5 mM MgCl2, 1 mM dNTP mixtures, 150 pmol of Random 6 mers, 60 U Ribonuclease Inhibitor (manufactured by Takara Shuzo Co., Ltd., 2310A), and 15 U Reverse Transcriptase XL (AMV) (manufactured by Takara Shuzo Co., Ltd., 2620A) were incubated at 30° C. for 10 minutes and thereafter at 42° C. for 1 hour using a thermal cycler (GeneAmp PCR System 9600, manufactured by Applied Biosystems), and the mixture was heated at 99° C. for 5 minutes to deactivate the enzyme, to give cDNA.
(§5) Oligonucleotide primers for reaction of PCR were designed based on mRNA nucleotide sequence of each gene listed in the following tables, and synthesized in the same manner as above. In Tables 4 and 5, each gene evaluated in this Example, GenBank Accession NO, the name of oligonucleotide primers and SEQ ID NOs of the primers in Sequence Listing were listed. […]

[1] = test system: interleukin-7 receptor (IL-7r); assay: RT-PCR expression level of IL-7r gene in monocytes; conditions: human monocytes, 30 PCR cycles
Procedure: as §1, §2, §3, §4, §5

[2] = test system: liver and activation-regulated chemokine (LARC); assay: RT-PCR expression level of LARC gene in monocytes; conditions: human monocytes, 30 PCR cycles
Procedure: as §1, §2, §3, §4, §5

[3] = test system: macrophage inflammatory protein-2-α (MIP2α); assay: RT-PCR expression level of MIP2α gene in monocytes; conditions: human monocytes, 35 PCR cycles
Procedure: as §1, §2, §3, §4, §5

lyzozyme (Lyz) = assay: RT-PCR expression level of Lyz gene in monocytes; conditions: human monocytes, 30 PCR cycles
Procedure: as §1, §2, §3, §4, §5

[4] = test system: interferon-induced 17-kDa/15-kDa protein (IFNp15/p17); assay: RT-PCR expression level of IFNp15/p17 gene in monocytes; conditions: human monocytes, 30 PCR cycles
Procedure: as §1, §2, §3, §4, §5

[5] = test system: SCO (cytochrome oxidase deficient, yeast) homolog-2 (SCO2); assay: RT-PCR expression level of SCO2 gene in monocytes; conditions: human monocytes, 30 PCR cycles
Procedure: as §1, §2, §3, §4, §5

[6] = test system: adenosine A2a receptor (ADORA2A); assay: RT-PCR expression level of ADORA2A gene in monocytes; conditions: human monocytes, 35 PCR cycles
Procedure: as §1, §2, §3, §4, §5

[7] = test system: signal peptidase complex (18 kDa) (SPC18); assay: RT-PCR expression level of SPC18 gene in monocytes; conditions: human monocytes, 30 PCR cycles
Procedure: as §1, §2, §3, §4, §5

[8] = L + D: DGE and LPS, LPS alone +++
[9] = T + D: DGE and TPA, TPA alone +
[10] = substance added alone, Con. (water) −
[11] = substance added alone, Con. (water) +/−
[12] = L + D: DGE and LPS, LPS alone +/−
[13] = substance added alone, Con. (water) +

Compound	expression level of IL-6 gene (interleukin-6 (IL-6); [10])	expression level of IL-7r gene [1, 11]	expression level of LARC gene [2, 11]	expression level of MIP2α gene [3, 11]	expression level of Lyz gene (lyzozyme (Lyz); [13])	expression level of IFNp15/p17 gene [4, 13]	expression level of SCO2 gene [5, 13]	expression level of ADORA2A gene [6, 13]	expression level of SPC18 gene [7, 13]	amplification of band ascribed to MIP1α mRNA, stimulant alone (MIP1α mRNA)	further results
O=C1C=CC(CO)OC1O [DGE, L-glycero-1,5-epoxy-1αβ,6-dihydroxy-cis-hex-3-en-2-one]	−	−	+/−	+/−	+	+	+	+/−	+		induction of MIP1α mRNA by LPS, effect of DGE (MIP1α mRNA; DGE 5 hours, then LPS 4 hours, RT-PCR band): inhibited; induction of MIP1α mRNA by TPA, effect of DGE (MIP1α mRNA; DGE 5 hours, then TPA 4 hours, RT-PCR band): inhibited; expression level of IL-6 gene (interleukin-6 (IL-6); [8]): −; expression level of IL-6 gene (interleukin-6 (IL-6); [9]): −; expression level of IL-7r gene ([1]; L + D: DGE and LPS, LPS alone ++): −; expression level of IL-7r gene ([1]; T + D: DGE and TPA, TPA alone −): −; expression level of LARC gene [2, 8]: +; expression level of LARC gene ([2]; T + D: DGE and TPA, TPA alone ++): +; expression level of MIP2α gene ([3]; L + D: DGE and LPS, LPS alone +): +/−; expression level of MIP2α gene [3, 9]: +/−; expression level of Lyz gene (lyzozyme (Lyz); [12]): +; expression level of Lyz gene (lyzozyme (Lyz); T + D: DGE and TPA, TPA alone +/−): +; expression level of IFNp15/p17 gene [4, 8]: +/−; expression level of IFNp15/p17 gene [4, 9]: +/−; expression level of SCO2 gene ([5]; L + D: DGE and LPS, LPS alone −): +; expression level of SCO2 gene [5, 9]: +; expression level of ADORA2A gene [6, 8]: −; expression level of ADORA2A gene [6, 9]: −; expression level of SPC18 gene [7, 12]: +; expression level of SPC18 gene [7, 9]: +
lipopolysaccharide [LPS, reference compound]	+++	++	+++	+	+/−	+++	−	+++	+/−	induction	
12-o-tetradecanoylphorbol 13-acetate [TPA, reference compound]	+	−	++	+	+/−	+	+	+	+	induction	
